A short description of this data set: photoluminescence quantum yield (fraction); solvent given as SMILES.

For the compound `COc1ccc(-c2csc(/C(C#N)=C/c3ccc(C#N)cc3)n2)cc1`, the photoluminescence quantum yield reads like this: (in CC#N) 0.008; (in CCO) 0.008; (in CN(C)C=O) 0.002; (in Cc1ccccc1) 0.248; (in ClCCl) 0.065.

For the setting “in Cc1ccccc1”, `N#Cc1ccccc1N1c2ccccc2C(c2ccccc2)(c2ccccc2)c2ccccc21` came in with a photoluminescence quantum yield of 0.33.

Under “in ClC(Cl)Cl”, `Cc1ccc(C(=O)/N=c2\oc3cccc4c5c(-c6ccccc6)oc6cccc(c(c2-c2ccccc2)c34)c65)cc1` came in with a photoluminescence quantum yield of 0.17.

The compound `C1=[N+]2N=C(c3ccccc3)O[B-]2(c2ccc([B-]34OC(c5ccccc5)=N[N+]3=Cc3c(ccc5ccccc35)O4)cc2)Oc2ccc3ccccc3c21` (stereo not given) gave a photoluminescence quantum yield (in C1CCOC1) of 0.002.

On to `CC1(C)Nc2cc3nc4cc(Cl)c(Cl)cc4nc3cc2N1`, for which, where the note is “in CCO”, the photoluminescence quantum yield turned out to be 0.42.

Take `c1ccc2cc(-c3c4ccccc4c(-c4ccc(-n5c6ccccc6c6ccccc65)cc4)c4ccccc34)ccc2c1`: the photoluminescence quantum yield (in ClCCl) stood at 0.76.

On to `C[n+]1ccc(-c2cc[n+](C)cc2)cc1`, for which the photoluminescence quantum yield (in CC#N) was 0.02.

Compound `Cc1cc(C)c(-c2cc(-c3c(C)cc(C)cc3C)c3ccc4c(-c5c(C)cc(C)cc5C)cc(-c5c(C)cc(C)cc5C)c5ccc2c3c54)c(C)c1` showed a photoluminescence quantum yield (in ClCCl) of 0.28.

Turning to `CN(C)c1ccc(/C=C/c2nc3ccc(N(C)C)cc3oc2=O)cc1`, the photoluminescence quantum yield was determined as 0.57 (in C1CCCCC1); 0.59 (in C1COCCO1); 0.21 (in CC#N); 0.36 (in CC(C)=O); 0.024 (in CC(O)CO); 0.56 (in CCCCCCC). The same compound gave a photoluminescence quantum yield (in CCO) of 0.016; a photoluminescence quantum yield (in CCOC(C)=O) of 0.52; a photoluminescence quantum yield (in CN(C)C=O) of 0.22; a photoluminescence quantum yield (in CS(C)=O) of 0.04; a photoluminescence quantum yield (in Cc1ccccc1) of 0.57; a photoluminescence quantum yield (in ClC(Cl)Cl) of 0.52. Also, the photoluminescence quantum yield reads like this: (in ClCCl) 0.55; (in OCC(O)CO) 0.019.

As to `COC(=O)c1cc(=O)n(C)c2cc(-c3cc(OC)c(OC)c(OC)c3)sc12`, the photoluminescence quantum yield by setting is: (in CC#N) 0.38; (in ClCCl) 0.53.

On to `CN(C)c1ccc2ccc3oc(=O)c(-c4ccccc4)nc3c2c1`, for which, for the setting “in c1ccccc1”, the photoluminescence quantum yield was found to be 0.152.

Take `N#CC(C#N)=Cc1ccc2c(c1)c1ccccc1n2-c1cccc2ccccc12`: the photoluminescence quantum yield (in ClCCl) stood at 0.05.

As to `CN(C)c1ccc(C2=C(c3ccccc3)c3sc4ccccc4[n+]3[B-](F)(F)O2)cc1`, the photoluminescence quantum yield (in C1CCOC1) is 0.01.

`N#Cc1nn(-c2ccc(F)cc2)nc1N1CCCC1` displayed a photoluminescence quantum yield (in CC#N) of 0.683.

Consider `O=c1c2ccccc2n(-c2ccc(-c3ccc(-n4c5ccccc5c(=O)c5ccccc54)cc3)cc2)c2ccccc12`, for which, where the note is “in ClCCl”, the photoluminescence quantum yield was 0.31.

In the case of `Cc1cc2cc(C)c3c4ccccc4[nH]c3c2o1`, the photoluminescence quantum yield (in ClCCl) amounted to 0.2.

On to `N#Cc1cc(C#N)c(-c2cc(-n3c4ccccc4c4ccccc43)cc(-n3c4ccccc4c4ccccc43)c2)cc1-c1cc(-n2c3ccccc3c3ccccc32)cc(-n2c3ccccc3c3ccccc32)c1`, for which the photoluminescence quantum yield (in C1CCCCC1) stood at 0.11.

`c1ccc(-c2nc(-c3ccccc3)nc(-c3ccc(-c4ccc5c(c4)C4(c6ccccc6-c6ccccc64)c4cc(-c6ccc(-c7nc(-c8ccccc8)nc(-c8ccccc8)n7)cc6)ccc4N5c4ccccc4)cc3)n2)cc1` returned a photoluminescence quantum yield (in c1cc(-c2cccc(-n3c4ccccc4c4ccccc43)c2)cc(-n2c3ccccc3c3ccccc32)c1) of 0.94.

With `c1ccc2c(c1)c1ccc3cccc4c3c1c2c1c2cccc3ccc5c6ccccc6c(c5c32)c41`, the photoluminescence quantum yield (in ClCCl) was 0.0031.

`O=C([O-])c1ccc(C(=O)[O-])c2cc3ccccc3cc12` came in with a photoluminescence quantum yield (in CN(C)C=O) of 0.066.

With `c1ccc2c3c(ccc2c1)-c1cccc2c1c-3cc1ccccc12`, the photoluminescence quantum yield (in CCCCCCC) is 0.16.

Where the note is “in ClCCl”, `Cc1ccc(N(c2ccc(C)cc2)c2ccc3c4cccc5c(N(c6ccc(C)cc6)c6ccc(C)cc6)ccc(c6cccc2c63)c54)cc1` registered a photoluminescence quantum yield of 0.61.

(Values after the Deep4Chem optical property database.)
